# Data reported in ChEMBL document CHEMBL1833824, “Effects of cyclization on stability, structure, and activity of α-conotoxin RgIA at the α9α10 nicotinic acetylcholine receptor and GABA(B) receptor” (J Med Chem, 2011).
# Bridge positions count the residues as written; N and C are the ends. Square brackets hold non-standard residues; d marks the D form. Peptide text beside a SMILES is read from it. Hyp = O=C(O)[C@@H]1C[C@@H](O)CN1
# Columns and labels:
# Oocyte = assay: Inhibition of human alpha-9/rat alpha-10 nACHR expressed in Xenopus oocytes assessed as inhibition of acetylcholine-induced current by voltage clamp assay relative to RgIA; type: cell-based; conditions: dose or concentration not given here
# [1] = Inhibition of GABA-B receptor-mediated high voltage-activated Ca2+ channel current in Wistar rat DRG neurons by whole-cell patch clamp assay; conditions: DRG neuron
smiles,measurement,setting,value
"N=C(N)NCCC[C@@H]1NC(=O)[C@H](Cc2ccc(O)cc2)NC(=O)[C@H](CCCNC(=N)N)NC(=O)[C@@H]2CSSC[C@H](NC(=O)CN)C(=O)N[C@@H](CSSC[C@@H](C(=O)O)NC1=O)C(=O)N[C@@H](CO)C(=O)N[C@@H](CC(=O)O)C(=O)N1C[C@H](O)C[C@H]1C(=O)N[C@@H](CCCNC(=N)N)C(=O)N2 (H-GCCSD[Hyp]RCRYRC-OH; disulfide 2-8, 3-12)",inhibition,Oocyte,41%
same,IC50,[1],20.5 nM
